≈ marks a conversion by molar mass, not a printed value.
Experiments:
A549 = test: Cytotoxicity against human A549 cells; format: functional, cell-based; conditions: Homo sapiens, A549
[1] = Cytotoxicity against human Bel-7721 cells; format: functional, cell-based
[2] = Cytotoxicity against human Anip-973 cells; format: functional, cell-based
KB = test: Cytotoxicity against human KB cells; format: functional, cell-based; conditions: Homo sapiens, KB; read-out: ED50 (the source's name)
[3] = Cytotoxicity against human PLC/PRF/5 cells; format: functional; conditions: read-out: ED50 (the source's name)
SNU1 = test: Cytotoxicity against human SNU1 cells; format: functional, cell-based
SNU-354 = test: Cytotoxicity against human SNU354 cells; format: functional, cell-based
[4] = Cytotoxicity against human SNUC4 cells; format: functional, cell-based; conditions: SNU-C4
[5] = Cytotoxicity against mouse sarcoma 180 cells; format: functional, cell-based
[6] = target: Aldo-keto reductase family 1 member B1 (Rattus norvegicus, UniProt P07943); test: Inhibition of rat lens aldose reductase
[7] = target: Prostaglandin G/H synthase 1 (Homo sapiens, UniProt P23219); test: Inhibition of cyclooxygenase-1
[8] = target: Prostaglandin G/H synthase 2 (Homo sapiens, UniProt P35354); test: Inhibition of cyclooxygenase-2
OVCAR-5 = test: Cytotoxicity against human OVCAR5 cells; format: functional, cell-based
OVCAR-8 = test: Cytotoxicity against human OVCAR8 cells; format: functional, cell-based
SK-OV-3 = test: Cytotoxicity against human SK-OV-3 cells; format: functional, cell-based
ACHN = test: Cytotoxicity against human ACHN cells; format: functional, cell-based
PC-3 = test: Cytotoxicity against human PC3 cells; format: functional, cell-based; conditions: Homo sapiens, PC-3
HCT-116 = test: Cytotoxicity against human HCT116 cells; format: functional, cell-based
HT-29 = test: Cytotoxicity against human HT29 cells; format: functional, cell-based; conditions: Homo sapiens, HT-29
MDA-MB-231 = test: Cytotoxicity against human MDA-MB-231 cells; format: functional, cell-based
MCF7 = test: Cytotoxicity against human MCF7 cells; format: functional, cell-based; conditions: Homo sapiens, MCF7
SF-268 = test: Cytotoxicity against human SF268 cells; format: functional, cell-based; conditions: Homo sapiens, SF-268; read-out: IC50
NCI-H460 = test: Cytotoxicity against human NCI-H460 cells; format: functional, cell-based; conditions: Homo sapiens, NCI-H460
DU-145 = test: Cytotoxicity against human DU145 cells; format: functional, cell-based; conditions: Homo sapiens, DU-145
NCI-H23 = test: Cytotoxicity against human NCI-H23 cells; format: functional, cell-based
HCC 2998 = test: Cytotoxicity against human HCC2998 cells; format: functional, cell-based
HCT-15 = test: Cytotoxicity against human HCT15 cells; format: functional, cell-based
KM12 = test: Cytotoxicity against human KM12 cells; format: functional, cell-based
SF-295 = test: Cytotoxicity against human SF295 cells; format: functional, cell-based
SNB-75 = test: Cytotoxicity against human SNB75 cells; format: functional, cell-based
U-251 = test: Cytotoxicity against human U251 cells; format: functional, cell-based
LOX IMVI = test: Cytotoxicity against human LOXI MVI cells; format: functional, cell-based
OVCAR-3 = test: Cytotoxicity against human OVCAR-3 cells; format: functional, cell-based
OVCAR-4 = test: Cytotoxicity against human OVCAR4 cells; format: functional, cell-based
[9] = Cytotoxicity against human HBC4 cells; format: functional, cell-based
[10] = Cytotoxicity against human BSY1 cells; format: functional, cell-based; conditions: BSY-1
[11] = Cytotoxicity against human HBC5 cells; format: functional, cell-based
NCI-H226 = test: Cytotoxicity against human NCI-H226 cells; format: functional, cell-based
NCI-H522 = test: Cytotoxicity against human NCI-H522 cells; format: functional, cell-based
DMS-273 = test: Cytotoxicity against human DMS273 cells; format: functional, cell-based
DMS-114 = test: Cytotoxicity against human DMS114 cells; format: functional, cell-based
St-4 = test: Cytotoxicity against human ST4 cells; format: functional, cell-based
[12] = Cytotoxicity against human MKN1 cells; format: functional, cell-based; conditions: MKN-1
MKN-7 = test: Cytotoxicity against human MKN7 cells; format: functional, cell-based
MKN-28 = test: Cytotoxicity against human MKN28 cells; format: functional, cell-based
MKN-45 = test: Cytotoxicity against human MKN45 cells; format: functional, cell-based
MKN-74 = test: Cytotoxicity against human MKN74 cells; format: functional, cell-based
[13] = Cytotoxicity against human RXF63IL cells; format: functional, cell-based
SF-539 = test: Cytotoxicity against human SF539 cells; format: functional, cell-based
SNB-78 = test: Cytotoxicity against human SNB78 cells; format: functional, cell-based
[14] = target: Sodium-dependent serotonin transporter (Homo sapiens, UniProt P31645); test: Inhibition of serotonin transporter
[15] = target: Sodium-dependent dopamine transporter (Homo sapiens, UniProt Q01959); test: Inhibition of dopamine uptake at DAT
[16] = Inhibition of gamma aminobutyric acid transporter
[17] = Inhibition of L-glutamate transporter
[18] = target: Sodium-dependent noradrenaline transporter (Homo sapiens, UniProt P23975); test: Inhibition of noradrenaline transporter
[19] = Cytotoxicity against human Hepa59T/VGH cells; format: functional; conditions: HEPA 59T/VGH, read-out: ED50 (the source's name)
K562 = test: Cytotoxicity against human K562 cells at 10 ug/mL; format: functional
Jurkat = test: Cytotoxicity against human Jurkat cells at 10 ug/mL; format: functional
[20] = Cytotoxicity against human WM1341 cells at 10 ug/mL; format: functional
HL-60 = test: Cytotoxicity against human HL60 cells at 10 ug/mL; format: functional
[21] = Cytotoxicity against human RPM18226 cells at 10 ug/mL; format: functional; conditions: RPMI-8226

Sodium-dependent serotonin transporter, sequence (P31645 whole entry): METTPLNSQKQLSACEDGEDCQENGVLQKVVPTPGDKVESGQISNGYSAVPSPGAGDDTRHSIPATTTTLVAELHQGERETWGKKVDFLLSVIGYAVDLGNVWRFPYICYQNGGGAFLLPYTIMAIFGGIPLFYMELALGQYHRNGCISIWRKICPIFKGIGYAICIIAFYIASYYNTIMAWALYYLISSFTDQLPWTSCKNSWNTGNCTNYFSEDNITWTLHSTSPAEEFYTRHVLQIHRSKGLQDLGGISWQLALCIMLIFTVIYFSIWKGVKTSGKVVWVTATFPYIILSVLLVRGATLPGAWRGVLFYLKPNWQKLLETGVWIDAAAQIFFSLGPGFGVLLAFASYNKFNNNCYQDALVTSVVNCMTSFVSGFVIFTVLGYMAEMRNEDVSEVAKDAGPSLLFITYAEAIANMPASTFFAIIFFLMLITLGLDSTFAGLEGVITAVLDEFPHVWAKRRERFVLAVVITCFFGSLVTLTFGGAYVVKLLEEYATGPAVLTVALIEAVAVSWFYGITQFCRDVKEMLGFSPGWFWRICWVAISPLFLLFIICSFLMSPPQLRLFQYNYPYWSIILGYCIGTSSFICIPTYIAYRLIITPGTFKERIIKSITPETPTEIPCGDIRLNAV
Sodium-dependent noradrenaline transporter, sequence (P23975 whole entry): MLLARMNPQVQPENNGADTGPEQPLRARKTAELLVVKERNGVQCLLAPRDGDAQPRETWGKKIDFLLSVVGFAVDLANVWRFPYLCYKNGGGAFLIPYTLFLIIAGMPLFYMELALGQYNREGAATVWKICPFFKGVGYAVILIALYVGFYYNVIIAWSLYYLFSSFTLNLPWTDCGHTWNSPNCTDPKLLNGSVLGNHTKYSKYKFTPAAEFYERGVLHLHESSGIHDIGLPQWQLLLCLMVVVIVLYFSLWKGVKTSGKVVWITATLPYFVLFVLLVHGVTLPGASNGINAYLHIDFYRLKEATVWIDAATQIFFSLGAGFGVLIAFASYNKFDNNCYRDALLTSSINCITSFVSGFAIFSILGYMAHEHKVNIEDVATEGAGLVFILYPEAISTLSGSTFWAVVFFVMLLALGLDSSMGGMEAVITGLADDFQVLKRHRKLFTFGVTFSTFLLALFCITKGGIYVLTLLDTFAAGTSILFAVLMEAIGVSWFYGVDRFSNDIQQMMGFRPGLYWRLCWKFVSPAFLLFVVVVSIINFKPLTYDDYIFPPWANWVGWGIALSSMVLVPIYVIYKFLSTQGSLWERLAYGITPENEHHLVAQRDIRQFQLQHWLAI
Prostaglandin G/H synthase 1, sequence (P23219 whole entry): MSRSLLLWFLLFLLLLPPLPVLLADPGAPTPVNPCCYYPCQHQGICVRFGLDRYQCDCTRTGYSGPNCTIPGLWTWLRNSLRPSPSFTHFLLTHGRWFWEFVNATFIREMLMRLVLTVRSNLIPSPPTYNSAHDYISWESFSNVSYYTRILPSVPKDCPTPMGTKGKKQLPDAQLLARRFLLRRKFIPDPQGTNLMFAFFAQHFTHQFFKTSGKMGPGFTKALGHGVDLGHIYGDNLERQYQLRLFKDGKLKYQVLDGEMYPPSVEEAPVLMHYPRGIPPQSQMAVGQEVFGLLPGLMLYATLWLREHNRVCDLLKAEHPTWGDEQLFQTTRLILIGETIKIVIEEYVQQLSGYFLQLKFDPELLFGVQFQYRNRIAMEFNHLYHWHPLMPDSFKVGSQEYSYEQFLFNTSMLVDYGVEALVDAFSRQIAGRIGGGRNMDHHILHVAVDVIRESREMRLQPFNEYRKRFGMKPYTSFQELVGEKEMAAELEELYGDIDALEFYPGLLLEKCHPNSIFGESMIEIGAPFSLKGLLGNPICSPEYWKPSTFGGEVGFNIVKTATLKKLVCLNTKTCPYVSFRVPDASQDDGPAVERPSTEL
Sodium-dependent dopamine transporter, sequence (Q01959 whole entry): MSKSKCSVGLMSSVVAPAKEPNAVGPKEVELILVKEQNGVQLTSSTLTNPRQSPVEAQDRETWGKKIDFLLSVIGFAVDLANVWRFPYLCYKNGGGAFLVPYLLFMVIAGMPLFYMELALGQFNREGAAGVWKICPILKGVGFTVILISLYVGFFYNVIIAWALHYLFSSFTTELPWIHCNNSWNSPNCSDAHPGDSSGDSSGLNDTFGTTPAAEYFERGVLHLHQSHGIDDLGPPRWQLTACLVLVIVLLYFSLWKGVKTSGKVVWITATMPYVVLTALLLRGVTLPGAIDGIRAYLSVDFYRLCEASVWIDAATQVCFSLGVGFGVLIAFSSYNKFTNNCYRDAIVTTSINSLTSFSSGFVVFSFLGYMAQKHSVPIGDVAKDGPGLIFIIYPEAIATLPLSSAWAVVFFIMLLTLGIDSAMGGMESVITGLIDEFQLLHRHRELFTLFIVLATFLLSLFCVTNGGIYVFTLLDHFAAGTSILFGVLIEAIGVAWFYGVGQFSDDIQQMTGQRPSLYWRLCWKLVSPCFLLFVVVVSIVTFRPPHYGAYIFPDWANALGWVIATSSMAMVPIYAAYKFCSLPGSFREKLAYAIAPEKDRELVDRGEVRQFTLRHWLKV
Prostaglandin G/H synthase 2, sequence (P35354 whole entry): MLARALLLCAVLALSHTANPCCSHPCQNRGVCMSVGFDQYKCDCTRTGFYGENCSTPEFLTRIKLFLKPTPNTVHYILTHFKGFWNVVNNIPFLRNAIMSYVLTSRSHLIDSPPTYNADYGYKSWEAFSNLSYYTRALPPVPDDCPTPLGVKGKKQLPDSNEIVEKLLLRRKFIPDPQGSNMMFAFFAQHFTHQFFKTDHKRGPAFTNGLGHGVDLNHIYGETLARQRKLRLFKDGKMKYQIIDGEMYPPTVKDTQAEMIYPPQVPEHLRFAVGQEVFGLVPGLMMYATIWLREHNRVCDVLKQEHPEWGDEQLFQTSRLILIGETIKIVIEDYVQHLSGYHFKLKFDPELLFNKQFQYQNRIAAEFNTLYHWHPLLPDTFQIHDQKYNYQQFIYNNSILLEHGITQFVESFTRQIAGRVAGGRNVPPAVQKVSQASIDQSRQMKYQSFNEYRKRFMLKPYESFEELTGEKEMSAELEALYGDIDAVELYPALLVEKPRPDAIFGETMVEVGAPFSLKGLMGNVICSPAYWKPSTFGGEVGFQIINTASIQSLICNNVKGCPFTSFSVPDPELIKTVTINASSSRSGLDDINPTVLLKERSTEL

COC1=CC(=O)c2c(O)c(OC)c3c(c2C1=O)-c1c2c(c(O)c(OC)c1[C@@H](C(C)=O)[C@@](C)(O)C3)C(=O)C=C(OC)C2=O [HYPOCRELLIN D]
IC50 (A549): 8.8 µg/mL (≈ 15.2 µM)
IC50 [1]: 1.8 µg/mL (≈ 3.11 µM)
IC50 [2]: 38.4 µg/mL (≈ 66.4 µM)

CC(C)C(C)/C=C/C(C)[C@H]1CC[C@@H]2[C@]1(C)CC[C@H]1[C@]23C=C[C@]2(C[C@@H](O)CC[C@]12C)OO3 (some centres not stated)
EC50 (KB): 9.97 µg/mL (≈ 23.3 µM)
EC50 [3]: 11 µg/mL (≈ 25.6 µM)

CC(C)[C@@H](C)/C=C/[C@@H](C)[C@H]1CC[C@@H]2[C@]1(C)CC[C@H]1[C@]23C=C[C@]2(C[C@@H](O)CC[C@]12C)OO3 [ERGOSTEROL PEROXIDE]
IC50 (SNU1): 18.7 µM
IC50 (SNU-354): 158 µM
IC50 [4]: 84.6 µM
IC50 [5]: 74.1 µM
IC50 [6]: 35.9 µM

C=C[C@@H]1[C@@H](O)C[C@@H]2[C@]3(CC[C@]4(C)[C@@H]([C@H](C)CCC(OO)C(=C)C)CC[C@@]24C)C[C@]13CCC(=O)OC (some centres not stated)
IC50 [7]: 43.7 µg
IC50 [8]: 4.7 µg

C=C(C)[C@@H](C)/C=C/[C@@H](C)[C@H]1CC[C@@H]2[C@]1(C)CC=C1[C@]23C=C[C@]2(C[C@@H](O)CC[C@]12C)OO3
IC50 (OVCAR-5): 0.54 µg/mL (≈ 1.27 µM)
IC50 (OVCAR-8): 0.22 µg/mL (≈ 0.518 µM)
IC50 (SK-OV-3): 0.81 µg/mL (≈ 1.91 µM)
IC50 (ACHN): 0.51 µg/mL (≈ 1.2 µM)
IC50 (PC-3): 0.57 µg/mL (≈ 1.34 µM)
IC50 (A549): 0.96 µg/mL (≈ 2.26 µM)
IC50 (HCT-116): 0.48 µg/mL (≈ 1.13 µM)
IC50 (HT-29): 0.57 µg/mL (≈ 1.34 µM)
IC50 (MDA-MB-231): 1.26 µg/mL (≈ 2.97 µM)
IC50 (MCF7): 0.36 µg/mL (≈ 0.848 µM)
IC50 (SF-268): 1.02 µg/mL (≈ 2.4 µM)
IC50 (NCI-H460): 0.61 µg/mL (≈ 1.44 µM)
IC50 (DU-145): 0.54 µg/mL (≈ 1.27 µM)
IC50 (NCI-H23): 0.54 µg/mL (≈ 1.27 µM)
IC50 (HCC 2998): 0.57 µg/mL (≈ 1.34 µM)
IC50 (HCT-15): 0.75 µg/mL (≈ 1.77 µM)
IC50 (KM12): 0.6 µg/mL (≈ 1.41 µM)
IC50 (SF-295): 0.75 µg/mL (≈ 1.77 µM)
IC50 (SNB-75): 2.16 µg/mL (≈ 5.09 µM)
IC50 (U-251): 0.63 µg/mL (≈ 1.48 µM)
IC50 (LOX IMVI): 0.6 µg/mL (≈ 1.41 µM)
IC50 (OVCAR-3): 0.19 µg/mL (≈ 0.447 µM)
IC50 (OVCAR-4): 0.6 µg/mL (≈ 1.41 µM)
IC50 [9]: 0.85 µg/mL (≈ 2 µM)
IC50 [10]: 0.6 µg/mL (≈ 1.41 µM)
IC50 [11]: 0.96 µg/mL (≈ 2.26 µM)
IC50 (NCI-H226): 0.63 µg/mL (≈ 1.48 µM)
IC50 (NCI-H522): 0.57 µg/mL (≈ 1.34 µM)
IC50 (DMS-273): 0.54 µg/mL (≈ 1.27 µM)
IC50 (DMS-114): 0.48 µg/mL (≈ 1.13 µM)
IC50 (St-4): 0.69 µg/mL (≈ 1.62 µM)
IC50 [12]: 0.42 µg/mL (≈ 0.989 µM)
IC50 (MKN-7): 0.48 µg/mL (≈ 1.13 µM)
IC50 (MKN-28): 0.84 µg/mL (≈ 1.98 µM)
IC50 (MKN-45): 0.54 µg/mL (≈ 1.27 µM)
IC50 (MKN-74): 0.54 µg/mL (≈ 1.27 µM)
IC50 [13]: 0.72 µg/mL (≈ 1.7 µM)
IC50 (SF-539): 0.84 µg/mL (≈ 1.98 µM)
IC50 (SNB-78): 1.17 µg/mL (≈ 2.76 µM)

CC(C)=CCC[C@]1(C)[C@@H](CC=C(C)C)C[C@@]2(CC=C(C)C)C(=O)[C@@](CC=C(C)C)(CC3=C[C@@H]4[C@@H](C(C)C)CC[C@@](C)(OO)[C@H]4CC3)C(=O)[C@]1(C(=O)C(C)C)C2=O [HYDROPEROXYCADIFORIN]
IC50 [14]: 0.0647 µM
IC50 [15]: 0.0647 µM
IC50 [16]: 0.05 µg/mL (≈ 0.0647 µM)
IC50 [17]: 0.5 µg/mL (≈ 0.647 µM)
IC50 [18]: 0.0647 µM

CC(C)[C@]12C=C3[C@](C)(O)CC[C@]3(OO1)[C@@H](C)CC2 [PEROXYGIBBEROL]
EC50 [19]: 8.2 µg/mL (≈ 32.5 µM)

CC(C)[C@@H](C)/C=C/[C@@H](C)[C@H]1CC[C@@H]2[C@]1(C)CC[C@H]1[C@]23C=C[C@]2(C[C@@H](O[C@@H]4O[C@H](CO)[C@@H](O)[C@H](O)[C@H]4O)CC[C@]12C)OO3
inhibition at 10 µg/mL (K562): 10%
inhibition at 10 µg/mL (Jurkat): 10%
inhibition at 10 µg/mL [20]: 10%
inhibition at 10 µg/mL (HL-60): 10%
inhibition at 10 µg/mL [21]: 10%

Source: ChEMBL document CHEMBL1149799, “Bioactive peroxides as potential therapeutic agents” (Eur J Med Chem, 2008)
